Results reported in article PMC10584170, “Machine learning-based phenotypic imaging to characterise the targetable biology of Plasmodium falciparum male gametocytes for the development of transmission-blocking antimalarials” (PLOS Pathogens, 2023).

How the values were obtained:
[1] = tested on: P. falciparum male gametocytes; test: P. falciparum Dual Gamete Formation Assay (PfDGFA), male readout (exflagellation); type: cell-based, Plasmodium falciparum NF54; conditions: for Average inhibition male (%): average of replicates; for % inhibition male (individual replicates) R1: replicate R1; for % inhibition male (individual replicates) R3: replicate R3; for % inhibition male (individual replicates) R4: replicate R4; for Activity: hit = >50% inhibition in male or female readout in at least 3 replicates, 0 = no class assigned
Method in brief: (§1)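 NF54 mature gametocytes (d14), cpd 24 h 37°C hypoxic gas; trigger: xanthurenic acid ookinete medium + Cy3 anti-Pfs25, 4°C 4 min → 28°C 4 min. Male: exflagellation centres, brightfield x6. Female: Pfs25+ gametes, fluorescence, +24 h 28°C dark.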

[2] = tested on: P. falciparum female gametocytes; test: P. falciparum Dual Gamete Formation Assay (PfDGFA), female readout (Pfs25-positive female gametes); type: cell-based, Plasmodium falciparum NF54; conditions: for Average inhibition female (%): average of replicates; for % inhibition female (individual replicates) R1: replicate R1; for % inhibition female (individual replicates) R3: replicate R3; for % inhibition female (individual replicates) R4: replicate R4
Method in brief: as §1

[3] = PfDGFA at 2µM, 24h preincubation with gametocytes
[4] = number of replicates with >50% inhibition in the male readout, 2µM
[5] = number of replicates with >50% inhibition in the female readout, 2µM
[6] = PfDGFA at 2µM, 24h preincubation with gametocytes prior to induction of gametogenesis
[7] = PfDGFA at 2µM, 24h preincubation
[8] = 2µM, 24h preincubation with gametocytes prior to induction of gametogenesis
[9] = 2µM, 24h preincubation, hits selected on >50% inhibition in the male readout across replicates
[10] = 2µM, 24h preincubation, hits selected on >50% inhibition in the female readout across replicates
[11] = 2µM, 24h preincubation, number of replicates with >50% inhibition in the male readout
[12] = 2µM, 24h preincubation, number of replicates with >50% inhibition in the female readout

| Compound | Average inhibition male (%) [1, 3] | % inhibition male (individual replicates) R1 [1, 3] | % inhibition male (individual replicates) R3 [1, 3] | % inhibition male (individual replicates) R4 [1, 3] | HitlevelM [1, 4] | Average inhibition female (%) [2, 3] | % inhibition female (individual replicates) R1 [2, 3] | % inhibition female (individual replicates) R3 [2, 3] | % inhibition female (individual replicates) R4 [2, 3] | HitlevelF [2, 5] | Average inhibition male (%) [1, 8] | % inhibition male (individual replicates) R1 [1, 8] | % inhibition male (individual replicates) R4 [1, 8] | Average inhibition female (%) [2, 8] | % inhibition female (individual replicates) R1 [2, 8] | % inhibition female (individual replicates) R3 [2, 8] | % inhibition female (individual replicates) R4 [2, 8] | other results |
| --- | --- | --- | --- | --- | --- | --- | --- | --- | --- | --- | --- | --- | --- | --- | --- | --- | --- | --- |
| c1ccc(Oc2ccc(Nc3ccnc(Nc4cccc(CNCCCN5CCOCC5)c4)n3)cc2)cc1 [TCMDC-138615] | 70.3% | 74.9% | 61.1% | 77.6% | 4 | 19.0% | 20.2% | 10.9% | 5.3% | 0 | – | – | – | – | – | – | – | – |
| COc1cc2nc(N3CCC(CNC(=O)c4ccc(-c5ccc(C(F)(F)F)cc5)cc4)CC3)nc(N)c2cc1OC [TCMDC-138716] | 66.2% | 83.5% | 34.3% | 64.2% | 3 | 47.4% | 32.4% | 31.5% | 42.3% | 1 | – | – | – | – | – | – | – | – |
| CC(=O)Nc1ccc(Nc2ncc([N+](=O)[O-])c(Nc3ccccc3C(N)=O)n2)cc1.Cl [TCMDC-138731] | – | – | – | – | – | – | – | – | – | – | – | – | – | – | – | – | – | % inhibition male (individual replicates) R1 [1, 6]: 16.1%; % inhibition male (individual replicates) R3 [1, 6]: -4.1%; % inhibition male (individual replicates) R4 [1, 6]: 46.2%; Average inhibition male (%) [1, 7]: 19.6%; % inhibition female (individual replicates) R1 [2, 6]: 2.0%; % inhibition female (individual replicates) R3 [2, 6]: 5.4%; % inhibition female (individual replicates) R4 [2, 6]: -11.2%; Average inhibition female (%) [2, 7]: -0.8% |
| O=C(NCCCCN1CCC(c2ccc3c(c2OCCN2CCCC2)CCCC3)CC1)c1ccc(-c2ccc(C(F)(F)F)cc2)cc1 [TCMDC-138768] | – | – | – | – | – | – | – | – | – | – | 31.7% | 23.4% | 63.6% | 9.4% | 18.9% | -7.9% | 3.3% | % inhibition male (individual replicates) R3 [1, 8]: -6.7%; HitlevelM [1, 9]: 1; Activity [1, 7]: 0; HitlevelF [2, 10]: 0 |
| Cc1[nH]c(C)c(-c2ccc(Oc3ccc(OC(F)(F)F)cc3)cc2)c(=O)c1Br [TCMDC-138826] | – | – | – | – | – | – | – | – | – | – | -11.2% | -5.2% | -18.5% | 14.3% | 12.8% | 15.5% | 15.2% | HitlevelM [1, 9]: 0; Activity [1, 7]: 0; HitlevelF [2, 10]: 0 |
| O=C(NCC1CCN(CCN2CCC(c3cn(CCO)c4ccccc34)CC2)CC1)c1ccc(-c2ccc(C(F)(F)F)cc2)cc1 [TCMDC-138856] | – | – | – | – | – | – | – | – | – | – | 42.1% | 32.1% | 39.5% | 23.9% | 24.2% | 27.5% | 18.4% | HitlevelM [1, 11]: 1; HitlevelF [2, 12]: 0 |
| CC1(C)CC(NCCCCCCCOc2ccc(OCc3ccccc3)cc2)CC(C)(C)N1.Cl [TCMDC-138958] | 66.7% | 71.0% | 36.7% | 78.9% | 3 | 23.9% | 22.5% | -1.0% | 34.0% | 0 | – | – | – | – | – | – | – | – |
| CCN1CCC2(c3cccc(OC)c3)Cc3nc4ccccc4c(-c4ccccc4)c3CC2C1 (stereo not drawn) [TCMDC-138968] | – | – | – | – | – | – | – | – | – | – | 50.6% | 28.7% | 66.9% | 33.9% | 34.1% | 23.7% | 21.6% | % inhibition male (individual replicates) R3 [1, 8]: 22.4%; HitlevelM [1, 11]: 2; HitlevelF [2, 12]: 1 |
